Source: ChEMBL document CHEMBL1201862, “PubChem BioAssay data set” (2004)
Activity calls are given as the source filed them. No stated cut-off is given here; in the data, actives have a measured IC50 and inactives only a lower limit.

What was measured:
[1] = target: T1, Sentrin-specific protease 7 (Homo sapiens, UniProt Q9BQF6); assay type: functional;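 further: Luminescence-based dose-response confirmation of ultra-high-throughput screening hits, measuring inhibition of SENP7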
T1 sequence (Q9BQF6 whole entry): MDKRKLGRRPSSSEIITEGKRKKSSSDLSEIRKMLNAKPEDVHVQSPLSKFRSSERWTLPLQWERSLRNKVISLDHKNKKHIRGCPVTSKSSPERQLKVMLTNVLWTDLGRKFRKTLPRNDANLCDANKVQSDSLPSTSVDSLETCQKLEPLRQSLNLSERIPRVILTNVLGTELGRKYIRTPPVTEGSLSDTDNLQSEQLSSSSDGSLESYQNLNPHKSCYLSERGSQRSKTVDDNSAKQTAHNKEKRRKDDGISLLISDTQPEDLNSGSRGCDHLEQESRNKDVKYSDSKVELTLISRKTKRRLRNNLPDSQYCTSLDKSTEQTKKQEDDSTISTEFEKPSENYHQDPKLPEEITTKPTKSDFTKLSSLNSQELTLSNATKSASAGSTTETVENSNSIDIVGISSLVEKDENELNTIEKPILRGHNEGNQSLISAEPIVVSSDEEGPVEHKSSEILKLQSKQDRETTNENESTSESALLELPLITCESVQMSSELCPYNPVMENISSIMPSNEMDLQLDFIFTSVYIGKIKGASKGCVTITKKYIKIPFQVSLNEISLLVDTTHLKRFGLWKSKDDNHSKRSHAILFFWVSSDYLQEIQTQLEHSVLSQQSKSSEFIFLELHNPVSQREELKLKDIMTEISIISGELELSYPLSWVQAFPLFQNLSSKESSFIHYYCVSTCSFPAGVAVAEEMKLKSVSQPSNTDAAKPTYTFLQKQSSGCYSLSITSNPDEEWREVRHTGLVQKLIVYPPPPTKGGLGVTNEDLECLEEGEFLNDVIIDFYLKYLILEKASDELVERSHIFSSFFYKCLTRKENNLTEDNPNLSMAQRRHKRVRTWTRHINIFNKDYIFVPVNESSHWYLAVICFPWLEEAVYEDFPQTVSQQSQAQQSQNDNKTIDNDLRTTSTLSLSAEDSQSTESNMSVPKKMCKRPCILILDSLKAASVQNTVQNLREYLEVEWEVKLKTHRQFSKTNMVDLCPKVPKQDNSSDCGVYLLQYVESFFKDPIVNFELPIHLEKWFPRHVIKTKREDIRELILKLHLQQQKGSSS

[2] = target: T2, Sentrin-specific protease 8 (Homo sapiens, UniProt Q96LD8); assay type: functional;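 further: luminescence read-out of SENP8 inhibition, dose-response confirmation following an ultra-high-throughput screen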
T2 sequence (Q96LD8 whole entry): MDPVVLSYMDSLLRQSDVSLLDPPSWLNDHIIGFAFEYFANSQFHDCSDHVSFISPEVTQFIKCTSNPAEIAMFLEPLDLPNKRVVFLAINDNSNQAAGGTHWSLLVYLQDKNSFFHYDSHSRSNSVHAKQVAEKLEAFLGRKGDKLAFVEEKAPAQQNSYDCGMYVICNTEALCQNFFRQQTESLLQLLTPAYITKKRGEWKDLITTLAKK

[3] = target: T3, Caspase-3 (Homo sapiens, UniProt P42574); assay type: functional;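 further: Dose-response selectivity test against caspase-3 for candidate inhibitors of sentrin-specific proteases (SENPs)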
T3 sequence (P42574 whole entry): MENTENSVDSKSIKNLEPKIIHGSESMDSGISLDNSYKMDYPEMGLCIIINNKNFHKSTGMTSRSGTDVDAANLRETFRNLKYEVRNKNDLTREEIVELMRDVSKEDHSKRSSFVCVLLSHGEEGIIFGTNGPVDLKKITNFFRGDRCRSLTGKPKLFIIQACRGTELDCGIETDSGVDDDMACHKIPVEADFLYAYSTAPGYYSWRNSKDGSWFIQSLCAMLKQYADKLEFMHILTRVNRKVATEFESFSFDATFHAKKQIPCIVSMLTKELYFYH

[4] = target: SUMO-activating enzyme (Homo sapiens, UniProt Q9UBT2); experiment: inhibitors of in vitro SUMOylation cascade, primary screen, biochemical, HTRF, uHTS (AID 2006); assay type: protein-complex assay
SUMO-activating enzyme, sequence (Q9UBE0 whole entry): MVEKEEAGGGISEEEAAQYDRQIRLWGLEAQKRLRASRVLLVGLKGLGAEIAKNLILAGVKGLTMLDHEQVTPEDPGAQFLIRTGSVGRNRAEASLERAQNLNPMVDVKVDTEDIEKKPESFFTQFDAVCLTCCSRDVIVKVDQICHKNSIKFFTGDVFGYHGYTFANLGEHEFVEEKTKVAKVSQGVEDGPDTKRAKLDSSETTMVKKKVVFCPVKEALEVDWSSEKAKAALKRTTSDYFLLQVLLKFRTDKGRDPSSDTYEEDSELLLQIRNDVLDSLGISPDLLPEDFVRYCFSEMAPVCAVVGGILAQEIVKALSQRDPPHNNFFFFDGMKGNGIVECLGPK
SUMO-activating enzyme, sequence (Q9UBT2 whole entry): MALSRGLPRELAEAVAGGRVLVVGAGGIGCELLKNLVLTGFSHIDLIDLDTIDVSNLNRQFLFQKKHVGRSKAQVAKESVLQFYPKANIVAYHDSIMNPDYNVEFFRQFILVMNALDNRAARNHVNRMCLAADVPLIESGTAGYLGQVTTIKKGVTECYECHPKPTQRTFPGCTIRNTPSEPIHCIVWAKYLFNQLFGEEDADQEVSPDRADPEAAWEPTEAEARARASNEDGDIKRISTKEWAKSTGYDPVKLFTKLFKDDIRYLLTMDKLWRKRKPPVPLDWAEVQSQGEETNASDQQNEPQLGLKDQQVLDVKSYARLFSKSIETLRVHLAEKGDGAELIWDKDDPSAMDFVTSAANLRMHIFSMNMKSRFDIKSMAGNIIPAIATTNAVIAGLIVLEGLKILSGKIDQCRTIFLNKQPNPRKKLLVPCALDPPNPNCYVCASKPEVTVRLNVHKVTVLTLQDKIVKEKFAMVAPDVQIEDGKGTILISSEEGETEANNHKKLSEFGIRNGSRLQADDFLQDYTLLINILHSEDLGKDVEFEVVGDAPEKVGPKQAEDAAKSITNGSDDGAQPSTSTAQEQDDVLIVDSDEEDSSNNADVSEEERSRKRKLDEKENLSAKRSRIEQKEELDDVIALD

[5] = target: T4, Sentrin-specific protease 6 (Homo sapiens, UniProt Q9GZR1); assay type: functional;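 further: Luminescence-based dose-response confirmatory assay of SENP6 inhibition, following up an ultra-high-throughput screen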
T4 sequence (Q9GZR1 whole entry): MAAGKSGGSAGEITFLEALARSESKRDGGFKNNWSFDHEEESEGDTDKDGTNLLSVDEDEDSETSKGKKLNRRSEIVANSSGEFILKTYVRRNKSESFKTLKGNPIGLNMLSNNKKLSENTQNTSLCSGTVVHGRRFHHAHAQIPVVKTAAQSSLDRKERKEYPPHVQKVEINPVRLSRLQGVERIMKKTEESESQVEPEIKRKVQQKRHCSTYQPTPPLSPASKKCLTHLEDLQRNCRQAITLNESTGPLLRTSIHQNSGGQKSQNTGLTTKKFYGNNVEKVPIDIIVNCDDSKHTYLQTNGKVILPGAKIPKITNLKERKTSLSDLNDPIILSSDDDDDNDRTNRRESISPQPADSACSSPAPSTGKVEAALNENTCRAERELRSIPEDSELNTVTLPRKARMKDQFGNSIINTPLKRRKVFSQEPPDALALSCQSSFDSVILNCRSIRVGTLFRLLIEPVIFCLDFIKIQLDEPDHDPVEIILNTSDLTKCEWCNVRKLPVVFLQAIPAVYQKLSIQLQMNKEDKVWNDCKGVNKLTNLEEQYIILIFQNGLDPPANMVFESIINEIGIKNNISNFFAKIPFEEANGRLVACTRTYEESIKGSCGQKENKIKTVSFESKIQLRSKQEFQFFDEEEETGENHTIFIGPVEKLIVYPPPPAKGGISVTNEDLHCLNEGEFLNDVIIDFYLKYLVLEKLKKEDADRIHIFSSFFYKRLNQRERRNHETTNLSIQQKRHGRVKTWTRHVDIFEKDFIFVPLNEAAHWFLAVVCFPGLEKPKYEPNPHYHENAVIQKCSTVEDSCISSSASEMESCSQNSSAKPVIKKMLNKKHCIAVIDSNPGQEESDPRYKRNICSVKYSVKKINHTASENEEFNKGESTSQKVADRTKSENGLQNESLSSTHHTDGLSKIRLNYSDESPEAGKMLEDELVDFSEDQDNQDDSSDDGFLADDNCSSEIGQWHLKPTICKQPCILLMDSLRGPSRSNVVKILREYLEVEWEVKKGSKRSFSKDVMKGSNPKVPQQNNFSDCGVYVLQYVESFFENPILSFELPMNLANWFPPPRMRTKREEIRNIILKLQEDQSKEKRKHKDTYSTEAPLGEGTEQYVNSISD

| SMILES | IC50 [1] | IC50 [2] | IC50 [3] | IC50 [4] | IC50 [5] |
| --- | --- | --- | --- | --- | --- |
| O=C(NNc1cc(N2CCOCC2)nc(N2CCOCC2)n1)c1ccc([N+](=O)[O-])cc1 | 6.14 µM (active) | 6.99 µM (active) | 32.4 µM (active) | 15.8 µM (active) | 6.72 µM (active) |
| Oc1ccc(/N=C/c2ccc(OCc3ccccc3)cc2)cc1 | 14.6 µM (active) | 24.1 µM (active) | 14.3 µM (active) | – | 16.4 µM (active) |
| Nc1c(N2CCCC2)cc(Cl)c2nonc12 | 4.09 µM (active) | 4.09 µM (active) | 9.05 µM (active) | 5.6 µM (active) | 3.02 µM (active) |
